{"source": "patent US20100041089A1", "about": "“IMPROVED METHOD FOR DETECTING CHEMICAL […]” (priority 2006, published 2010)", "test_system": "yeast genes (expressed mRNA)", "assay": "DNA chip measurement of expressed mRNA of yeast genes after culture with a toxic chemical substance", "format": "cell-based, Saccharomyces cerevisiae S288C", "conditions": "for level of expressed mRNA in the presence of chemical substance / level in the absence of chemical substance: cultured two hours with the chemical substance; for The level of expressed mRNA in the presence of chemical substance/The level of expressed mRNA in the absence of chemical substance: cultured two hours with substance", "how_it_was_run": "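Yeast S288C, YPD 25° C; toxicant at log phase, 2 h, sublethal growth-inhibiting conc.; no-chemical control. Hot SDS/acetate RNA extraction, oligo-dT mRNA, Cy3/Cy5-dUTP RT. Whole-genome chip, 65° C >12 h. Readout: treated/control intensity ratio, ≥2 significant.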", "data": [{"smiles": "Cl[C@H]1[C@H](Cl)[C@@H](Cl)[C@@H](Cl)[C@H](Cl)[C@H]1Cl", "note": "[(7), γ-Hexachlorocyclohexane]", "values": [{"measurement": "level of expressed mRNA in the presence of chemical substance / level in the absence of chemical substance", "setting": "yeast gene YDR133C", "value": 0.2}, {"measurement": "level of expressed mRNA in the presence of chemical substance / level in the absence of chemical substance", "setting": "yeast gene YDR250C", "value": 1.0}, {"measurement": "level of expressed mRNA in the presence of chemical substance / level in the absence of chemical substance", "setting": "yeast gene YDR278C", "value": 0.7}, {"measurement": "level of expressed mRNA in the presence of chemical substance / level in the absence of chemical substance", "setting": "yeast gene YDR281C", "value": 0.6}, {"measurement": "The level of expressed mRNA in the presence of chemical substance/The level of expressed mRNA in the absence of chemical substance", "setting": "yeast gene YDR330W", "value": 1.3}, {"measurement": "level of expressed mRNA in the presence of chemical substance / level in the absence of chemical substance", "setting": "yeast gene YDR366C", "value": 1.5}, {"measurement": "The level of expressed mRNA in the presence of chemical substance/The level of expressed mRNA in the absence of chemical substance", "setting": "yeast gene YDR411C", "value": 2.0}, {"measurement": "The level of expressed mRNA in the presence of chemical substance/The level of expressed mRNA in the absence of chemical substance", "setting": "yeast gene YDR511W", "value": 1.5}, {"measurement": "The level of expressed mRNA in the presence of chemical substance/The level of expressed mRNA in the absence of chemical substance", "setting": "yeast gene YDR545W", "value": 1.2}, {"measurement": "The level of expressed mRNA in the presence of chemical substance/The level of expressed mRNA in the absence of chemical substance", "setting": "yeast gene YEL001C", "value": 1.1}, {"measurement": "The level of expressed mRNA in the presence of chemical substance/The level of expressed mRNA in the absence of chemical substance", "setting": "yeast gene YER004W", "value": 1.4}, {"measurement": "The level of expressed mRNA in the presence of chemical substance/The level of expressed mRNA in the absence of chemical substance", "setting": "yeast gene YER035W", "value": 1.9}, {"measurement": "The level of expressed mRNA in the presence of chemical substance/The level of expressed mRNA in the absence of chemical substance", "setting": "yeast gene YER079W", "value": 1.9}, {"measurement": "The level of expressed mRNA in the presence of chemical substance/The level of expressed mRNA in the absence of chemical substance", "setting": "yeast gene YER106W", "value": 1.0}, {"measurement": "The level of expressed mRNA in the presence of chemical substance/The level of expressed mRNA in the absence of chemical substance", "setting": "yeast gene YER158C", "value": 1.2}, {"measurement": "The level of expressed mRNA in the presence of chemical substance/The level of expressed mRNA in the absence of chemical substance", "setting": "yeast gene YER163C", "value": 1.5}, {"measurement": "The level of expressed mRNA in the presence of chemical substance/The level of expressed mRNA in the absence of chemical substance", "setting": "yeast gene YER175C", "value": 2.3}, {"measurement": "The level of expressed mRNA in the presence of chemical substance/The level of expressed mRNA in the absence of chemical substance", "setting": "yeast gene YFL006W", "value": 1.0}, {"measurement": "The level of expressed mRNA in the presence of chemical substance/The level of expressed mRNA in the absence of chemical substance", "setting": "yeast gene YFL010C", "value": 1.5}, {"measurement": "The level of expressed mRNA in the presence of chemical substance/The level of expressed mRNA in the absence of chemical substance", "setting": "yeast gene YFL024C", "value": 3.3}, {"measurement": "The level of expressed mRNA in the presence of chemical substance/The level of expressed mRNA in the absence of chemical substance", "setting": "yeast gene YFL032W", "value": 1.1}, {"measurement": "level of expressed mRNA in the presence of chemical substance / level in the absence of chemical substance", "setting": "yeast gene YFR026C", "value": 1.3}, {"measurement": "The level of expressed mRNA in the presence of chemical substance/The level of expressed mRNA in the absence of chemical substance", "setting": "yeast gene YGL037C", "value": 2.9}, {"measurement": "The level of expressed mRNA in the presence of chemical substance/The level of expressed mRNA in the absence of chemical substance", "setting": "yeast gene YGL047W", "value": 1.7}, {"measurement": "The level of expressed mRNA in the presence of chemical substance/The level of expressed mRNA in the absence of chemical substance", "setting": "yeast gene YGL053W", "value": 3.7}, {"measurement": "level of expressed mRNA in the presence of chemical substance / level in the absence of chemical substance", "setting": "yeast gene YGL088W", "value": 1.0}, {"measurement": "The level of expressed mRNA in the presence of chemical substance/The level of expressed mRNA in the absence of chemical substance", "setting": "yeast gene YGL121C", "value": 4.7}, {"measurement": "The level of expressed mRNA in the presence of chemical substance/The level of expressed mRNA in the absence of chemical substance", "setting": "yeast gene YGL199C", "value": 1.3}, {"measurement": "level of expressed mRNA in the presence of chemical substance / level in the absence of chemical substance", "setting": "yeast gene YGR038W", "value": 1.1}, {"measurement": "The level of expressed mRNA in the presence of chemical substance/The level of expressed mRNA in the absence of chemical substance", "setting": "yeast gene YGR101W", "value": 1.5}, {"measurement": "The level of expressed mRNA in the presence of chemical substance/The level of expressed mRNA in the absence of chemical substance", "setting": "yeast gene YGR110W", "value": 1.7}, {"measurement": "The level of expressed mRNA in the presence of chemical substance/The level of expressed mRNA in the absence of chemical substance", "setting": "yeast gene YGR130C", "value": 1.3}, {"measurement": "level of expressed mRNA in the presence of chemical substance / level in the absence of chemical substance", "setting": "yeast gene YGR139W", "value": 0.8}, {"measurement": "The level of expressed mRNA in the presence of chemical substance/The level of expressed mRNA in the absence of chemical substance", "setting": "yeast gene YGR154C", "value": 2.0}, {"measurement": "The level of expressed mRNA in the presence of chemical substance/The level of expressed mRNA in the absence of chemical substance", "setting": "yeast gene YGR221C", "value": 1.2}, {"measurement": "level of expressed mRNA in the presence of chemical substance / level in the absence of chemical substance", "setting": "yeast gene YGR243W", "value": 1.9}, {"measurement": "level of expressed mRNA in the presence of chemical substance / level in the absence of chemical substance", "setting": "yeast gene YGR293C", "value": 1.3}, {"measurement": "level of expressed mRNA in the presence of chemical substance / level in the absence of chemical substance", "setting": "yeast gene YHL006C", "value": 1.2}, {"measurement": "level of expressed mRNA in the presence of chemical substance / level in the absence of chemical substance", "setting": "yeast gene YHR095W", "value": 0.8}, {"measurement": "level of expressed mRNA in the presence of chemical substance / level in the absence of chemical substance", "setting": "yeast gene YHR105W", "value": 0.9}, {"measurement": "The level of expressed mRNA in the presence of chemical substance/The level of expressed mRNA in the absence of chemical substance", "setting": "yeast gene YHR138C", "value": 3.0}, {"measurement": "level of expressed mRNA in the presence of chemical substance / level in the absence of chemical substance", "setting": "yeast gene YHR181W", "value": 0.8}, {"measurement": "The level of expressed mRNA in the presence of chemical substance/The level of expressed mRNA in the absence of chemical substance", "setting": "yeast gene YHR199C", "value": 1.1}, {"measurement": "The level of expressed mRNA in the presence of chemical substance/The level of expressed mRNA in the absence of chemical substance", "setting": "yeast gene YIL023C", "value": 1.2}, {"measurement": "The level of expressed mRNA in the presence of chemical substance/The level of expressed mRNA in the absence of chemical substance", "setting": "yeast gene YIL041W", "value": 0.8}, {"measurement": "The level of expressed mRNA in the presence of chemical substance/The level of expressed mRNA in the absence of chemical substance", "setting": "yeast gene YIL087C", "value": 1.8}, {"measurement": "level of expressed mRNA in the presence of chemical substance / level in the absence of chemical substance", "setting": "yeast gene YIL127C", "value": 0.6}, {"measurement": "level of expressed mRNA in the presence of chemical substance / level in the absence of chemical substance", "setting": "yeast gene YJL017W", "value": 0.2}, {"measurement": "level of expressed mRNA in the presence of chemical substance / level in the absence of chemical substance", "setting": "yeast gene YJL037W", "value": 1.2}, {"measurement": "The level of expressed mRNA in the presence of chemical substance/The level of expressed mRNA in the absence of chemical substance", "setting": "yeast gene YJL057C", "value": 2.7}, {"measurement": "The level of expressed mRNA in the presence of chemical substance/The level of expressed mRNA in the absence of chemical substance", "setting": "yeast gene YJL066C", "value": 1.6}, {"measurement": "The level of expressed mRNA in the presence of chemical substance/The level of expressed mRNA in the absence of chemical substance", "setting": "yeast gene YJL082W", "value": 0.4}, {"measurement": "level of expressed mRNA in the presence of chemical substance / level in the absence of chemical substance", "setting": "yeast gene YJL097W", "value": 1.0}]}]}
